Assay: In vivo pharmacokinetics in dogs (i.v.)
Conditions: Dog/female/Beagle, 0.3 mg/kg i.v., PEG400 50% + Water 40% + EtOH 10%
Procedure: For in vivo pharmacokinetic experiments test compounds were administered to female CD-1 mice, male Wistar rats, Beagle dogs or Cynomolgus monkeys intravenously at doses of 0.3 to 1 mg/kg formulated as solutions using solubilizers such as PEG400 in well-tolerated amounts.
Studies may also have been performed as cassette administrations of up to 3 compounds given together simultaneously in low doses.
For pharmacokinetics after intravenous administration test compounds were given in the female mice and male rat as i.v. bolus and in dogs and monkeys as short term infusion (15 min). Blood samples were taken e.g. at 2 min, 8 min, 15 min, 30 min, 45 min, 1 h, 2 h, 4 h, 6 h, 8 h and 24 h after dosing from the vena jugularis (mouse, rat) or vena saphena (dog, monkey). […] PK parameters were calculated by non-compartmental analysis using a PK calculation software (e.g. Phoenix WinNonlin®, Certara USA, Inc.).
PK parameters derived from concentration-time profiles after i.v.: CLplasma (in L/kg/h): Total plasma clearance of test compound calculated by dose (in μg/kg) divided by area under the concentration-time curve from t=0 h to infinity (extrapolated) (AUCinf in μg*h/L); CLblood: Total blood clearance of test compound: CLplasma*Cp/Cb (in L/kg/h) with Cp/Cb being the ratio of test compound concentrations in plasma and blood. […]

C[C@@H]1NC(=O)NN=C1c1ccc(-n2ccc(C(F)(F)F)n2)c(C(F)(F)F)c1 [Example 1, (5S)-5-methyl-6-{3-(trifluoromethyl)-4-[3-(trifluoromethyl)-1H-pyrazol-1-yl]phenyl}-4,5-dihydro-1,2,4-triazin-3(2H)-one]
CLblood: 4.5 mL/min/kg

From patent US20250170136A1, “1,2,4-TRIAZIN-3(2H)-ONE COMPOUNDS FOR THE TREATMENT OF HYPERPROLIFERATIVE DISEASES” (BAYER AKTIENGESELLSCHAFT, priority 2019, published 2025)
